Test results taken from US10093706B2, “Dominant positive hnRNP-E1 polypeptide compositions and methods” (Indiana University Research and Technology Corporation, priority 2017, dated 2018).
Where “and” joins values, the source holds several entries; their conditions need not be identical. Equal values may be shown once.

Tests used:
[1] = target: hnRNP-E1 binding to folate receptor mRNA and hnRNP-E1 mRNA cis-element (Homo sapiens, UniProt Q15365); details: physiologically relevant thiols; cited from earlier work
Sequence of hnRNP-E1 binding to folate receptor mRNA and hnRNP-E1 mRNA cis-element (Q15365 whole entry): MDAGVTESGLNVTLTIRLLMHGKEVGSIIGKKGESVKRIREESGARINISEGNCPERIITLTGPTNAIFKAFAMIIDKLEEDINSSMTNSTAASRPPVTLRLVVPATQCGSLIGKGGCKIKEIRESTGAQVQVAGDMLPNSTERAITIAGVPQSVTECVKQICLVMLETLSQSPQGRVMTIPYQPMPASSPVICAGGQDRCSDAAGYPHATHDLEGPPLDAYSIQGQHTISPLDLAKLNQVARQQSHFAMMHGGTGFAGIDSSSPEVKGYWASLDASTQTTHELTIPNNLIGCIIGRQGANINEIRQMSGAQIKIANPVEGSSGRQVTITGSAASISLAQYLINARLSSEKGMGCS

[2] = target: T1, RNA-protein complexes of GST-hnRNP-E1 and 25-nt hnRNP-E1 mRNA cis-element (Homo sapiens, UniProt Q15365, A205V); test: Gel-shift assay: effect of thiols, iron and deferoxamine on RNA-protein complex formation; type: binding; details: 100-μM thiol
T1 construct: made in house; host or cells: Escherichia coli BL21
T1 sequence (Q15365 whole entry A205V, one chain of several): as the sequence (Q15365 whole entry) above, with A205V counted along it

hnRNP-E1 mRNA = test: In vitro translation of hnRNP-E1; type: biochemical, human; details: agent added to translation mixture (4.1-mM ß-ME)
Method: (§1) In vitro transcription-translation was carried out using the Linked SP6/T7 In Vitro Transcription/Translation Kit (Roche Applied Science) after addition of one of various targeted DNAs—pSPT18-25-hnRNP-E1 DNA, or Pst1-linearized plasmid pSPT18-folate receptor-α, or HPV16 L2 DNA, (0.5 μg/reaction)—to the transcription mix as described. In other experiments, the capacity for perturbing the interaction of hnRNP-E1 with the 25-nt hnRNP-E1 cis-element during in vitro translation was assessed in the presence of either scrambled oligonucleotides (5′-[…]-3′ SEQ ID NO:20) or specific antisense oligonucleotides (5′-[…]-3′ SEQ ID NO:21) generated against the 25-nt hnRNP-E1 mRNA cis-element (GenScript USA, Piscataway, N.J.).

folate receptor-α mRNA = test: In vitro translation of folate receptor-α; type: biochemical, human
Method: In vitro transcription-translation was carried out using the Linked SP6/T7 In Vitro Transcription/Translation Kit (Roche Applied Science) after addition of one of various targeted DNAs—pSPT18-25-hnRNP-E1 DNA, or Pst1-linearized plasmid pSPT18-folate receptor-α, or HPV16 L2 DNA, (0.5 μg/reaction)—to the transcription mix as described. In other experiments, the capacity for perturbing the interaction of hnRNP-E1 with the 25-nt hnRNP-E1 cis-element during in vitro translation was assessed in the presence of either scrambled oligonucleotides (5′-GCGTCGCTCGCTTCGCACGTGCGCC-3′ SEQ ID NO:20) or specific antisense oligonucleotides (5′-GGG AGC GAG CGG GCG GGA G-3′ SEQ ID NO:21) generated against the 25-nt hnRNP-E1 mRNA cis-element (GenScript USA, Piscataway, N.J.).

[3] = target: T1, RNA-protein complexes of GST-hnRNP-E1 and 25-nt hnRNP-E1 mRNA cis-element; test: Gel-shift assay: effect of thiols, iron and deferoxamine on RNA-protein complex formation; type: binding; details: fixed L-homocysteine
Method: Other studies assessed the effect of iron(II) or iron(III) on homocysteine-induced RNA-protein interactions.
Studies were conducted to evaluate the effect of iron(II) (as ferrous sulfate heptahydrate) or iron(III) (as ferric chloride hexahydrate) in modulating RNA-protein interactions during gel-shift assays in either the absence or presence of 10-mM glutathione. The iron preparation, either alone or with 50-μM of deferoxamine (DFO) to define the specificity of iron(II), was incubated first with glutathione and hnRNP-E1 before addition of other components of the reaction mixture. […] The samples were analyzed by PAGE and autoradiography overnight followed by densitometric analysis of the signals representing RNA-protein complexes.

[4] = test system: newly synthesized [^35S]hnRNP-E1 in placental 1584-HF cells; test: Biosynthetic rate of hnRNP-E1 after oligonucleotide transfection into placental 1584-HF cells; type: cell-based, human; details: oligonucleotide transfected into placental 1584-HF cells
Text: On the day before transfection, placental 1584-HF cells were trypsinized, counted, and plated in 6-well plates at 2×10^5 cells per well in 2.5-mL of MEM-HF medium, so that cells would be 70-80% confluent after overnight culture. Cells were then transfected with either wild-type, or scrambled DNA, or antisense DNA to 25-nt hnRNP-E1 cis-element using Lipofectamine 2000 DNA transfection reagent and the manufacturer's protocol. One well of cells was trypsinized and harvested on day-3 (2 days after transfection) as a control. Cells in the remaining 5 wells were starved of cysteine using cysteine-free MEM-HF for 4-h following which the rate of biosynthesis of hnRNP-E1 protein was determined in transfected cells by specifically immunoprecipitating and quantifying newly synthesized [^35S]hnRNP-E1.

[5] = target: [^35S]25-nt hnRNP-E1 mRNA cis-element; test: Dissociation constant (KD) of GST-hnRNP-E1 or its mutant proteins for the 25-nt hnRNP-E1 mRNA cis-element; type: binding, human; details: L-Homocysteine 0 μM
Method: (§2) Methods for testing the ability of an engineered hnRNP-E1 variant polypeptide to bind to an RNA comprising the sequence of SEQ ID NO:6 are known in the art. Such methods include, but are not limited to, RNA electrophoretic mobility shift assays, as exemplified herein, RNA pull-down assays, and oligonucleotide-targeted RNase H protection assays. Such assays are conducted in the presence or absence of homocysteine to determine the RNA-binding dependence of any particular hnRNP-E1 polypeptide tested on the presence of homocysteine. […] Additional methods are outline in Tang et al. (“Incrimination of heterogeneous nuclear ribonucleoprotein E1 (hnRNP-E1) as a candidate sensor of physiological folate deficiency.” J Biol Chem. 2011; 286(45):39100-39115), which is incorporated herein in its entirety.
(§3) Specific binding was determined by subtracting values of non-specific binding with GST from those of total binding with GST-hnRNP-E1; (however, in Table 1 and FIG. 6G, non-specific binding using bovine serum albumin (BSA) was subtracted from total binding to GST-hnRNP-E1 to determine specific binding). The KD was calculated from a Scatchard plot using GraphPad Prism 6 from GraphPad Software (San Diego, Calif.), as previously described in the art.

[6] = target: [^35S]18-nt folate receptor-α mRNA cis-element; test: Dissociation constant (KD) of GST-hnRNP-E1 or its mutant proteins for the 18-nt folate receptor-α mRNA cis-element; type: binding, human; details: L-Homocysteine 0 μM; listed as wild-type-like hnRNP-E1(G292A)-mutant
Method: as §2, §3

[7] = test system: 25-nt hnRNP-E1 mRNA cis-element; test: Gel-shift assay of hnRNP-E1 proteins with 25-nt hnRNP-E1 mRNA cis-element; type: binding, human; details: absence of L-homocysteine
Method: (§4) Parenthetically, there was no significant difference in RNA binding to GST-hnRNP-E1 by use of either 32P-RNA probes or 35S-labeled RNA probes used. Other studies assessed the effect of iron(II) or iron(III) on homocysteine-induced RNA-protein interactions.
Recombinant GST-plasmid DNA, pGST-hnRNP-E1, pGST-hnRNP-E2, and related engineered variant plasmids were transformed into BL21 Escherichia coli from Novagen (Madison, Wis.). After induction by 1 mM isopropyl-1-thio-ß-D-galactopyranoside, the GST-hnRNP-E1 and engineered variant fusion proteins were individually purified using the B-PER GST Fusion Protein Purification Kit (Pierce, Rockford, Ill.). The eluted GST fusion proteins were dialyzed against 500 volumes of buffer to remove excess reducing reagents (such as dithiothreitol (DTT)) and assayed by SDS-PAGE and Western blots using anti-peptide hnRNP-E1 antiserum. Gel shift assays with target RNA were carried out as described.

HPV16 L2 RNA = test: In vitro translation of HPV16 L2 protein; type: biochemical, Human Papillomavirus type 16; details: after quenching excess ß-ME by NEM (2 mM)
Method: as §1
(§5) Construction of plasmids for generation of HPV16 L2 RNA, gel-shift and in vitro translation studies were carried as described with additional treatments shown in FIGS. 10A-10D

[8] = test system: newly synthesized [^35S]hnRNP-E1 in placental 1584-HF cells; test: Biosynthetic rate of hnRNP-E1 after protein transfection into placental 1584-HF cells; type: cell-based, human; details: protein transfected in placental 1584-HF cells
Text: (§6) Transfection of purified recombinant wild-type or various mutant hnRNP-E1 proteins into cells was achieved using the Xfect™ Protein Transfection Kit (Clontech, Mountain View, Calif.). Briefly, placental 1584-HF cells in 10-cm dishes at 70-80% confluence were transfected with 2.4-mL serum-free medium and Xfect Protein Transfection Reagent (1.2-mL) containing 20-μg of either wild-type hnRNP-E1-, or highest-affinity (HA)-hnRNP-E1(C293S)-mutant, or wild-type-like hnRNP-E1 (G292A)-mutant proteins and 2-μg of ß-galactosidase at 37° C. for 60-min. After cysteine-starvation for 4-h, an aliquot of cells were assessed for ß-galactosidase activity (to measure the efficiency of co-transfection of ß-galactosidase) and the remaining cells were pulsed with L-[^35S]cysteine (250-μCi) and assessed for specific [^35S]cysteine incorporated into folate receptor to determine the biosynthetic rate of this protein. A similar protocol was employed for analysis of newly synthesized [^35S]hnRNP-E1 using anti-hnRNP-E1 antiserum-coupled agarose and control agarose in order to derive values for specific [^35S]cysteine incorporated into hnRNP-E1 and thereby determine the biosynthetic rate of this protein.

[9] = test system: newly synthesized [^35S]folate receptors in placental 1584-HF cells; test: Biosynthetic rate of folate receptors after protein transfection into placental 1584-HF cells; type: cell-based, human; details: protein transfected in placental 1584-HF cells
Text: as §6

[10] = test system: HPV16 L2 mRNA cis-element; test: Gel-shift assay of hnRNP-E1 proteins with HPV16 L2 mRNA; type: binding, Human Papillomavirus type 16; details: absence of reducing agents; versus wild-type and G292A
Method: as §4, §5

[11] = listed as wild-type-like hnRNP-E1(G292A)-mutant

NC(CCS)C(=O)O (racemic) [DL-homocysteine]
hnRNP-E1 activation and mRNA-binding [1]: far less

O[C@H](CS)[C@H](O)CS (racemic) [dithiothreitol]
RNA-protein signals relative to L-homocysteine [2]: much stronger RNA-protein signals

N[C@H](CCS)C(=O)O [D-homocysteine]
hnRNP-E1 activation and mRNA-binding [1]: did not have any effect

N[C@@H](CS)C(=O)O [L-Cysteine, L-cysteine]
RNA-protein signals relative to L-homocysteine [2]: far weaker | hnRNP-E1 activation and mRNA-binding [1]: far less

CCN1C(=O)C=CC1=O [N-ethylmaleimide]
effect on in vitro translation of hnRNP-E1 (hnRNP-E1 mRNA): progressive reduction in the amount of hnRNP-E1 translated | basal translation of folate receptor-α mRNA in vitro (folate receptor-α mRNA; increasing NEM): diminished in a dose-dependent manner

N[C@@H](CCC(=O)N[C@@H](CS)C(=O)NCC(=O)O)C(=O)O [glutathione]
RNA-protein signals relative to L-homocysteine [2]: no detectable signals | hnRNP-E1 activation and mRNA-binding [1]: far less

NC1CCSC1=O (stereo not shown) [homocysteine thiolactone]
hnRNP-E1 activation and mRNA-binding [1]: far less

O.O.O.O.O.O.[Cl-].[Cl-].[Cl-].[Fe+3] [iron(III), ferric chloride hexahydrate]
effect on RNA-complex formation ([3]; 10-mM glutathione): comparable dose-dependent reduction in RNA-complex formation | effect on formation of RNA-protein complexes ([3]; no glutathione): no such influence

CSCC[C@H](N)C(=O)O [methionine]
RNA-protein signals relative to L-homocysteine [2]: no detectable signals | hnRNP-E1 activation and mRNA-binding [1]: did not have any effect

OCCS [ß-ME, ß-mercaptoethanol]
RNA-protein signals relative to L-homocysteine [2]: much stronger RNA-protein signals

Antisense: antisense oligonucleotides (5′-GGG AGC GAG CGG GCG GGA G-3′ SEQ ID NO:21) against the 25-nt hnRNP-E1 mRNA cis-element (antisense GGGAGCGAGCGGGCGGGAG; chemistry not given here)
effect on in vitro translation of hnRNP-E1 (hnRNP-E1 mRNA): dose-dependent inhibition of translation of hnRNP-E1 | [^35S]cysteine-hnRNP-E1 protein [4]: 0.62 ± 0.02 b fmol/mg protein/h | [^35S]cysteine-hnRNP-E1 protein ([4]; listed as antisense oligonucleotides): 0.62 fmol/mg protein/h

GST-hnRNP-E1(G292A): control mutant, glycine-292 mutated to alanine; behaved similar to wild-type hnRNP-E1
Kd [5]: 2.02 nM | Kd [6]: 1.57 nM and 1.5 nM | RNA-protein gel-shift signal [7]: no RNA-protein gel-shift signals | HPV16 L2 protein signal (HPV16 L2 RNA): insignificant reduction of HPV16 L2 protein signal | [^35S]cysteine-hnRNP-E1 [8]: 1.03 ± 0.21 b fmol/mg protein/h | [^35S]cysteine-hnRNP-E1 [8, 11]: 1.03 fmol/mg protein/h | [^35S]cysteine-folate receptor [9]: 1.79 ± 0.13 b fmol/mg protein/h | [^35S]cysteine-folate receptor [9, 11]: 1.79 fmol/mg protein/h

Scrambled: scrambled oligonucleotides (5′-GCGTCGCTCGCTTCGCACGTGCGCC-3′ SEQ ID NO:20) (GCGTCGCTCGCTTCGCACGTGCGCC; chemistry not given here)
effect on in vitro translation of hnRNP-E1 (hnRNP-E1 mRNA): failed to quench the translation of hnRNP-E1 | [^35S]cysteine-hnRNP-E1 protein [4]: 1.01 ± 0.03 a fmol/mg protein/h | [^35S]cysteine-hnRNP-E1 protein ([4]; listed as scrambled-oligonucleotides): 1.0 fmol/mg protein/h

hnRNP-E1(C54S)-mutant: hnRNP-E1 with cysteine-54 replaced by serine (SEQ ID NO:3)
interaction with HPV16 L2 mRNA on gel-shift assays [10]: greater interaction | translation of folate receptor-α (folate receptor-α mRNA; presence of 2-mM NEM): maximally increased
